Our source for the half-life, T1/2 and Ki values is patent US20240245793A1, “PSD-95 INHIBITORS AND USES THEREOF” (priority 2021, published 2024).

Molecules are shown by their SMILES. Like-named read-outs stand apart in the source and are kept apart here.

Data set [1] concerns the target T1, plasmin (Homo sapiens, UniProt P00747).
T1 construct: Tissue plasminogen factor (tPA), which generates plasmin from plasminogen
Description: In vitro plasmin stability assay. In kind it is in vitro ADME. As for the experimental part: At selected time points during the incubation, the ligands were extracted from 80 μL of assay matrix by treatment with 80 μL of 50% acetonitrile (ACN). The samples were filtered and analysed by UPLC to determine the amount of ligand remaining. LC-MS analysis was performed to confirm ligand integrity and identify cleavage sites.

A short description of data set [2]: In vitro plasma stability in undiluted pooled human plasma. The settings on record: for T1/2: 100 μM ligand, 37° C., mean ± SEM (Table 13, FIG. 10). In kind it is in vitro ADME. As for the experimental part: At selected time points during the incubation, the ligands were extracted from the assay matrix by adding assay matrix to 6M Urea followed by precipitation using 20% TCA in acetone. After overnight incubation, the samples were filtered and analysed by UPLC to determine the amount of ligand remaining. LC-MS analysis was performed to confirm ligand integrity and identify cleavage sites.

Data set [3] has as its target PDZ1-2 of PSD-95 (Homo sapiens, UniProt P78352). Description: Fluorescence polarization (FP) competition assay, affinity to PDZ1-2 of PSD-95. In kind it is binding. The settings on record: dimeric ligands fused to L-TAT and L-Arg9; mean ± SEM, n ≥ 3 (Table 5, FIG. 2). As to the method: First, a saturation binding curve was obtained to determine KD values for the interaction between a fluorescent dimeric probe and PDZ1-2 of PSD-95. Increasing concentrations of PDZ1-2 (0.015-30 nM) were added to a constant concentration of the probe (0.5 nM). The fluorescence polarization (FP) of the sample was measured at excitation/emission wavelength of 635/670 nm and the generated FP values were fitted to a one site binding model using the software GraphPad Prism. […] The FP values were fitted to a one site competition (variable slope) model in GraphPad prism. The resulting IC50 values were converted to Ki values as described previously by Nikolovska-Coleska et al., Anal. Biochem., 2004, 332, 261).

[4] abbreviates: isolated enzyme plasmin, read-out: T1/2.

T1 sequence (P00747 581-810 limits assumed, species assumed): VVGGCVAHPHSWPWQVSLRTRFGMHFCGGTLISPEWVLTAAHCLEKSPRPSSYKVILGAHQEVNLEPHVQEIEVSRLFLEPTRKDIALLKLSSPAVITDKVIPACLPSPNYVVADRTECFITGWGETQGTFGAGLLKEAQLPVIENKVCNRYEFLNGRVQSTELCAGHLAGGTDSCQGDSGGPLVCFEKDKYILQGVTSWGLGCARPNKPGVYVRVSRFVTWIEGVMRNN
T1 sequence (P00747 97-580 partner limits assumed, species assumed): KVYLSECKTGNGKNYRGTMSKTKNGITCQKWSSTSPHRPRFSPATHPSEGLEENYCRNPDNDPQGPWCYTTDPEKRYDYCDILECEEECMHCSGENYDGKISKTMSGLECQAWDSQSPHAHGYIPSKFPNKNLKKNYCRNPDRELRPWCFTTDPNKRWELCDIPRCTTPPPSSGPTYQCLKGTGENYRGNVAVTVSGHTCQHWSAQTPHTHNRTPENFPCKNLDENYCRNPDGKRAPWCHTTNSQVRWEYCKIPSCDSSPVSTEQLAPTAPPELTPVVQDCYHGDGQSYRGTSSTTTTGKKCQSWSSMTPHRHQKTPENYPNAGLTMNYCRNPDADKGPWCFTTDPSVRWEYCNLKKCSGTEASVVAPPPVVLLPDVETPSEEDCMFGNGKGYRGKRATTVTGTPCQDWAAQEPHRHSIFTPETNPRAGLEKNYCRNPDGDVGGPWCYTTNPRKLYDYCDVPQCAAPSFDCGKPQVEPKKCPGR
Sequence of PDZ1-2 of PSD-95 (P78352 61-249 limits assumed): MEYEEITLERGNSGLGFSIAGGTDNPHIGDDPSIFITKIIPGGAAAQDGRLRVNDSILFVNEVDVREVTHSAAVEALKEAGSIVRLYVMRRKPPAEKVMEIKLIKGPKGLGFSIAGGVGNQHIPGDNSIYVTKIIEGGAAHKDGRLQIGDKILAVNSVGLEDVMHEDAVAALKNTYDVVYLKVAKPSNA

Consider `CC[C@H](C)[C@H](NC(=O)CCOCCOCCN(CCOCCOCCC(=O)N[C@H](C(=O)N[C@@H](CCC(=O)O)C(=O)N[C@H](C(=O)N[C@@H](CC(=O)O)C(=O)N[C@H](C(=O)O)C(C)C)[C@@H](C)O)[C@@H](C)CC)C(=O)[C@H](CCCNC(=N)N)NC(=O)[C@H](CCCNC(=N)N)NC(=O)[C@H](CCCNC(=N)N)NC(=O)[C@H](CCC(N)=O)NC(=O)[C@H](CCCNC(=N)N)NC(=O)[C@H](CCCNC(=N)N)NC(=O)[C@H](CCCCN)NC(=O)[C@H](CCCCN)NC(=O)[C@H](CCCNC(=N)N)NC(=O)CNC(=O)[C@@H](N)Cc1ccc(O)cc1)C(=O)N[C@@H](CCC(=O)O)C(=O)N[C@H](C(=O)N[C@@H](CC(=O)O)C(=O)N[C@H](C(=O)O)C(C)C)[C@@H](C)O` [Compound 8, L-TAT-NPEG4(IETDV)2, reference compound], for which the half-life at 100 μM in data set [1] (plasmin (5 μg/mL) in PBS, read-out: T1/2) amounted to 9.05 ± 1 h. Moreover, the T1/2 in data set [2] amounted to 24 ± 0 h. Compound `CC(=O)N[C@@H](Cc1ccc(O)cc1)C(=O)NCC(=O)N[C@@H](CCCNC(=N)N)C(=O)N[C@@H](CCCCN)C(=O)N[C@@H](CCCCN)C(=O)N[C@@H](CCCNC(=N)N)C(=O)N[C@@H](CCCNC(=N)N)C(=O)N[C@@H](CCC(N)=O)C(=O)N[C@@H](CCCNC(=N)N)C(=O)N[C@@H](CCCNC(=N)N)C(=O)N[C@@H](CCCNC(=N)N)C(=O)N(CCOCCOCCC(=O)N[C@@H](CCCCN)C(=O)N[C@@H](CCC(=O)O)C(=O)N[C@H](C(=O)N[C@H](C(=O)N[C@H](C(=O)O)C(C)C)[C@@H](C)O)[C@@H](C)O)CCOCCOCCC(=O)N[C@@H](CCCCN)C(=O)N[C@@H](CCC(=O)O)C(=O)N[C@H](C(=O)N[C@H](C(=O)N[C@H](C(=O)O)C(C)C)[C@@H](C)O)[C@@H](C)O` [Compound 13] returned a Ki in data set [3] of 6.5 ± 0.7 nM. The half-life in data set [1] (setting [4]) was 9.5 ± 3 h. `CC(=O)N[C@@H](Cc1ccc(O)cc1)C(=O)NCC(=O)N[C@@H](CCCNC(=N)N)C(=O)N[C@@H](CCCCN)C(=O)N[C@@H](CCCCN)C(=O)N[C@@H](CCCNC(=N)N)C(=O)N[C@@H](CCCNC(=N)N)C(=O)N[C@@H](CCC(N)=O)C(=O)N[C@@H](CCCNC(=N)N)C(=O)N[C@@H](CCCNC(=N)N)C(=O)N[C@@H](CCCNC(=N)N)C(=O)N(CCOCCOCCC(=O)N[C@@H](CCCCN)C(=O)N[C@@H](CCC(=O)O)C(=O)N[C@H](C(=O)N[C@H](C(=O)N[C@H](C(=O)O)C(C)C)C(C)C)[C@@H](C)O)CCOCCOCCC(=O)N[C@@H](CCCCN)C(=O)N[C@@H](CCC(=O)O)C(=O)N[C@H](C(=O)N[C@H](C(=O)N[C@H](C(=O)O)C(C)C)C(C)C)[C@@H](C)O` [Compound 15] had a Ki in data set [3] of 2.1 ± 0.2 nM. The half-life in data set [1] (setting [4]) turned out to be 6.42 ± 2.17 h. In data set [3], `CC(=O)N[C@@H](Cc1ccc(O)cc1)C(=O)NCC(=O)N[C@@H](CCCNC(=N)N)C(=O)N[C@@H](CCCCN)C(=O)N[C@@H](CCCCN)C(=O)N[C@@H](CCCNC(=N)N)C(=O)N[C@@H](CCCNC(=N)N)C(=O)N[C@@H](CCC(N)=O)C(=O)N[C@@H](CCCNC(=N)N)C(=O)N[C@@H](CCCNC(=N)N)C(=O)N[C@@H](CCCNC(=N)N)C(=O)N(CCOCCOCCC(=O)N[C@@H](CCCCN)C(=O)N[C@@H](CCC(=O)O)C(=O)N[C@H](C(=O)N[C@@H](CCCNC(=N)N)C(=O)N[C@H](C(=O)O)C(C)C)[C@@H](C)O)CCOCCOCCC(=O)N[C@@H](CCCCN)C(=O)N[C@@H](CCC(=O)O)C(=O)N[C@H](C(=O)N[C@@H](CCCNC(=N)N)C(=O)N[C@H](C(=O)O)C(C)C)[C@@H](C)O` [Compound 17] showed a Ki of 6.6 ± 0.6 nM. Further, in data set [1] (setting [4]), the half-life was 6.42 ± 2.17 h. For `CC[C@H](C)[C@H](NC(=O)CCOCCOCCN(CCOCCOCCC(=O)N[C@H](C(=O)N[C@@H](CO)C(=O)N[C@H](C(=O)N[C@@H](CC(=O)O)C(=O)N[C@H](C(=O)O)C(C)C)[C@@H](C)O)[C@@H](C)CC)C(=O)[C@H](CCCNC(=N)N)NC(=O)[C@H](CCCNC(=N)N)NC(=O)[C@H](CCCNC(=N)N)NC(=O)[C@H](CCC(N)=O)NC(=O)[C@H](CCCNC(=N)N)NC(=O)[C@H](CCCNC(=N)N)NC(=O)[C@H](CCCCN)NC(=O)[C@H](CCCCN)NC(=O)[C@H](CCCNC(=N)N)NC(=O)CNC(=O)[C@H](Cc1ccc(O)cc1)NC(C)=O)C(=O)N[C@@H](CO)C(=O)N[C@H](C(=O)N[C@@H](CC(=O)O)C(=O)N[C@H](C(=O)O)C(C)C)[C@@H](C)O` [Compound 19], the affinity in data set [3], expressed as Ki, was 36.1 ± 1.8 nM. Besides, the half-life in data set [1] (setting [4]) worked out at 8.9 ± 0.667 h. In turn, `CC(=O)N[C@@H](Cc1ccc(O)cc1)C(=O)NCC(=O)N[C@@H](CCCNC(=N)N)C(=O)N[C@@H](CCCCN)C(=O)N[C@@H](CCCCN)C(=O)N[C@@H](CCCNC(=N)N)C(=O)N[C@@H](CCCNC(=N)N)C(=O)N[C@@H](CCC(N)=O)C(=O)N[C@@H](CCCNC(=N)N)C(=O)N[C@@H](CCCNC(=N)N)C(=O)N[C@@H](CCCNC(=N)N)C(=O)N(CCOCCOCCC(=O)N[C@H](C(=O)N[C@@H](CCC(=O)O)C(=O)N[C@H](C(=O)N[C@H](C(=O)N[C@H](C(=O)O)C(C)C)C(C)C)[C@@H](C)O)C(C)C)CCOCCOCCC(=O)N[C@H](C(=O)N[C@@H](CCC(=O)O)C(=O)N[C@H](C(=O)N[C@H](C(=O)N[C@H](C(=O)O)C(C)C)C(C)C)[C@@H](C)O)C(C)C` [Compound 21] had a Ki in data set [3] of 15.8 ± 1.6 nM. Moreover, the half-life in data set [1] (setting [4]) was 8.87 ± 0.683 h. `CC(=O)N[C@@H](CCCNC(=N)N)C(=O)N[C@@H](CCCNC(=N)N)C(=O)N[C@@H](CCCNC(=N)N)C(=O)N[C@@H](CCCNC(=N)N)C(=O)N[C@@H](CCCNC(=N)N)C(=O)N[C@@H](CCCNC(=N)N)C(=O)N[C@@H](CCCNC(=N)N)C(=O)N[C@@H](CCCNC(=N)N)C(=O)N[C@@H](CCCNC(=N)N)C(=O)N(CCOCCOCCC(=O)N[C@@H](CCCCN)C(=O)N[C@@H](CCC(=O)O)C(=O)N[C@H](C(=O)N[C@@H](CC(C)C)C(=O)N[C@H](C(=O)O)C(C)C)[C@@H](C)O)CCOCCOCCC(=O)N[C@@H](CCCCN)C(=O)N[C@@H](CCC(=O)O)C(=O)N[C@H](C(=O)N[C@@H](CC(C)C)C(=O)N[C@H](C(=O)O)C(C)C)[C@@H](C)O` [Compound 23] displayed a half-life at 100 μM in data set [1] (isolated enzyme plasmin) of 43.6 ± 4.6 h. This compound also gave a T1/2 in data set [2] of 24 ± 0 h. In data set [2], `CC(=O)N[C@@H](CCCNC(=N)N)C(=O)N[C@@H](CCCNC(=N)N)C(=O)N[C@@H](CCCNC(=N)N)C(=O)N[C@@H](CCCNC(=N)N)C(=O)N[C@@H](CCCNC(=N)N)C(=O)N[C@@H](CCCNC(=N)N)C(=O)N[C@@H](CCCNC(=N)N)C(=O)N(CCOCCOCCC(=O)N[C@@H](CCCCN)C(=O)N[C@@H](CCC(=O)O)C(=O)N[C@H](C(=O)N[C@@H](CC(C)C)C(=O)N[C@H](C(=O)O)C(C)C)[C@@H](C)O)CCOCCOCCC(=O)N[C@@H](CCCCN)C(=O)N[C@@H](CCC(=O)O)C(=O)N[C@H](C(=O)N[C@@H](CC(C)C)C(=O)N[C@H](C(=O)O)C(C)C)[C@@H](C)O` [Compound 67] showed a T1/2 of 24 ± 0 h. The compound `CC(=O)N[C@@H](CCCNC(=N)N)C(=O)N[C@@H](CCCNC(=N)N)C(=O)N[C@@H](CCCNC(=N)N)C(=O)N[C@@H](CCCNC(=N)N)C(=O)N[C@@H](CCCNC(=N)N)C(=O)N(CCOCCOCCC(=O)N[C@@H](CCCCN)C(=O)N[C@@H](CCC(=O)O)C(=O)N[C@H](C(=O)N[C@@H](CC(C)C)C(=O)N[C@H](C(=O)O)C(C)C)[C@@H](C)O)CCOCCOCCC(=O)N[C@@H](CCCCN)C(=O)N[C@@H](CCC(=O)O)C(=O)N[C@H](C(=O)N[C@@H](CC(C)C)C(=O)N[C@H](C(=O)O)C(C)C)[C@@H](C)O` [Compound 71] gave a half-life at 100 μM in data set [2] (human) of 21.1 ± 2.3 h.
